These results are taken from patent publication US20250188123A1, “PROTEASE INHIBITORS” (Regents of the University of Minnesota, priority 2022, published 2025).

A word on the Ki: it is the dissociation constant of the complex between target and ligand, obtained from inhibition or displacement.

In one assay the target is T1, human caspase-3 (Homo sapiens, UniProt P42574).
T1 construct: made in house; host or cells: E. coli Rosetta 2 pLysS DE3
T1 sequence (P42574 29-277): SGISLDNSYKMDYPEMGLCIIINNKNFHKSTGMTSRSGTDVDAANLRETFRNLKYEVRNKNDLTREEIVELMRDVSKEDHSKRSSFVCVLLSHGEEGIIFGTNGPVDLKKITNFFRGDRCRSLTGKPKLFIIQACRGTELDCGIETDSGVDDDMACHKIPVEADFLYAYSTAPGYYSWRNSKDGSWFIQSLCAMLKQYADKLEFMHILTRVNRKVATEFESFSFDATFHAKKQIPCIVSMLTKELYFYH
Description: Fluorescent enzyme assay, Casp3 (AFC substrate AcDEVD-AFC). It is filed as biochemical. The source says:
(§1) Human recombinant Casp1, 6, 7, and 9 were purchased from BioVision (Milpitas/CA, USA). AFC fluorogenic substrates and control peptides (AcYVAD-CHO, AcVDVAD-CHO, AcDEVD-CHO, AcVEID-CHO, and AcLEHD-CHO) were purchased from Bachem (Torrance/CA, USA). The pET23b vector encoding human caspase-3 was a gift of Dr. Michelle Arkin at University of California, San Francisco. Expression and purification of Casp3 was guided by previously described protocols (Denault J-B, Salvesen G S., Current Protocols in Protein Science, 2002, 30(1), 21.13. 1-21.13. 15). Briefly, the plasmid was transformed into E. coli Rosetta 2 pLyss DE3 cells that were cultured at 1 L scale in shake flasks. Five hours post induction with IPTG, cells were harvested through centrifugation (4000 g for 10 minutes at 4° C.), lysed by sonication, and centrifuged again for 30 minutes at 20000 g. Supernatant was resuspended in buffer (100 mM Tris pH 8.0, 500 mM NaCl). Purification was achieved by nickel-affinity chromatography followed by ion-exchange chromatography. Protein was diluted to 0.5 mg/mL and stored at −80° C. in 100 mM Tris, pH 8.0 supplemented with 10% glycerol. The typical yield for the expression, isolation, and purification was approximately 3 mg/L. The DNA encoding human caspase-2 (hCASP2, amino acids 170-452, free of the N-terminal caspase activation and recruitment domain) open reading frame (ORF) was amplified via polymerase chain reaction (PCR) from full-length hCASP2 cDNA (Origene, Rockville, MD; Cat #SC321316) using following primers: forward, 5′-[…]-3′; reverse, 5′-[…]-3′. The PCR fragment was then cloned into the pET23b vector (Millipore Sigma, Burlington, MA), and DNA sequence was verified by classic Sanger sequencing analyses. Site-directed mutageneses were carried out using a QuikChange II XL site-directed mutagenesis kit (Agilent Technologies, Santa Clara, CA; Cat #200522) according to the manufacturer's instruction. Expression of recombinant hCASP2 was induced using 150 μM isopropyl-β-D-thiogalactopyranoside (IPTG) (Promega, Madison, WI) in the BL21(DE3) E. coli strain (Millipore Sigma) at 16° C. for 14 hours while shaking at 250 rpm. Cells were then harvested via centrifugation at 6,000 g, 4° C. for 15 minutes, followed by lysis via sonication. Proteins were initially purified using HisPur Ni-NTA resin (Thermo Fisher Scientific, Waltham, MA) followed by metal chelating chromatography (5 mL HiTrap Chelating HP columns (GE Healthcare Life Sciences, Piscataway, NJ)). Further purification was carried out using anion exchange chromatography (5 mL HiTrap Q HP columns (GE Healthcare Life Sciences)) for hCASP2. Proteins were stored in 1× phosphate-buffered saline (pH 7.4) at 10 mg/mL (concentration determined using a BCA assay (Thermo Fisher Scientific)), −80° C. until further use.
(§2) KM values were determined experimentally to be the following: Casp1: 5.9 μM; Casp2: 37.1 μM; Casp3: 7.6 μM; Casp6: 14.5 μM; Casp7: 13.8 μM; Casp9: 149.1 μM. Enzymes were diluted in buffer: 100 mM MES (pH 6.5) for Casp2 and or 100 mM HEPES (pH 7.0) for all other caspases, plus 150 mM NaCl, 0.1% CHAPS, 1.5% sucrose, 10 mM DTT. Enzyme concentrations were 0.05 U/well for Casp1, 6, and 7; 0.5 U/well for Casp9, 20 nM/well for Casp2, and 2 nM/well for Casp3. Enzyme in buffer (19 μL) was added per well in a black 384-well Corning 4514 assay plate. Test compounds were serially diluted in dimethyl sulfoxide (DMSO) and plated in duplicate into a Corning 3656 transfer plate. Test compound was added to assay plates in 0.5 μL aliquots per well and mixed 10 times using a BiomekFX (Beckman Coulter). Compound and enzyme mixture was incubated at 37° C. for 5 minutes for aldehyde warheads and 45 minutes for cyano warheads. […]

The target in another assay is T2, human caspase-2 (Homo sapiens, UniProt P42575).
T2 construct: inferred from pET23b, XhoI reverse primer without stop codon, Ni-NTA purification) (C); made in house; host or cells: E. coli BL21(DE3)
T2 sequence (P42575 170-452): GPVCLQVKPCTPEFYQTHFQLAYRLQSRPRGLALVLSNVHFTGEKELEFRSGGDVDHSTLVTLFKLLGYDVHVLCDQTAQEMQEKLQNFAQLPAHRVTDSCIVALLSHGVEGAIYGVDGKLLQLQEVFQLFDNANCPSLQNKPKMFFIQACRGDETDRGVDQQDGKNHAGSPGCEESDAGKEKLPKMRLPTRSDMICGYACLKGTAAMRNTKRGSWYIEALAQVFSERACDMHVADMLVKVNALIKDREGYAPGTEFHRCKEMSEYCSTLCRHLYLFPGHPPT
Description: Fluorescent enzyme assay, Casp2 (AFC substrate Z-VDVAD-AFC). Particulars: for Ki (Casp3) / Ki (Casp2): selectivity Casp2 over Casp3. It is filed as biochemical.
From the text: as §1, §2

In the case of `Cc1ccc2c(c1)CCN(C(=O)[C@@H](NC(=O)[C@H](CCCC(=O)O)NC(=O)[C@@H]1Nc3ccc(F)cc3C1(C)C)C(C)C)[C@@H]2C(=O)N[C@H](C=O)CC(=O)O` [Compound 12, (S)-6-(((S)-1-((S)-1-(((S)-1-carboxy-3-oxopropan-2-yl)carbamoyl)-6-methyl-3,4-dihydroisoquinolin-2(1H)-yl)-3-methyl-1-oxobutan-2-yl)amino)-5-((R)-5-fluoro-3,3-dimethylindoline-2-carboxamido)-6-oxohexanoic acid hydrotrifluoroacetate], the Ki at human caspase-3 is more than 100 µM. Besides, on human caspase-2, the affinity corresponds to a Ki of 4.17 µM and the “Ki (Casp3) / Ki (Casp2)” value turned out to be 24.
For the compound `Cc1ccc2c(c1)CCN(C(=O)[C@@H](NC(=O)[C@H](CCCC(=O)O)NC(=O)[C@H]1Nc3ccc(F)cc3C1(C)C)C(C)C)C2C(=O)N[C@H](C=O)CC(=O)O` (stereo partly drawn) [Compound 13, (S)-6-(((S)-1-((S)-1-(((S)-1-carboxy-3-oxopropan-2-yl)carbamoyl)-6-methyl-3,4-dihydroisoquinolin-2(1H)-yl)-3-methyl-1-oxobutan-2-yl)amino)-5-((S)-5-fluoro-3,3-dimethylindoline-2-carboxamido)-6-oxohexanoic acid hydrotrifluoroacetate], the Ki is more than 100 µM at human caspase-3 and 0.646 µM on human caspase-2. Also, on human caspase-2, the “Ki (Casp3) / Ki (Casp2)” value was 155.
`Cc1ccc2c(c1F)CCN(C(=O)[C@@H](NC(=O)[C@H](CCCC(=O)O)NC(=O)[C@@H]1Cc3ccccc3N1)C(C)C)C2C(=O)N[C@H](C=O)CC(=O)O` (stereo partly drawn) [Compound 14, (S)-6-(((S)-1-((S)-1-(((S)-1-carboxy-3-oxopropan-2-yl)carbamoyl)-5-fluoro-6-methyl-3,4-dihydroisoquinolin-2(1H)-yl)-3-methyl-1-oxobutan-2-yl)amino)-5-((S)-indoline-2-carboxamido)-6-oxohexanoic acid hydrotrifluoroacetate]: the Ki on human caspase-3 is more than 100 µM. At human caspase-2, the Ki is 0.191 µM and the “Ki (Casp3) / Ki (Casp2)” value is reported as 525.
In turn, `Cc1ccc2c(c1F)CCN(C(=O)[C@@H](NC(=O)[C@H](CCCC(=O)O)NC(=O)[C@H]1Nc3ccc(F)cc3C1(C)C)C(C)C)C2C(=O)N[C@H](C=O)CC(=O)O` (stereo partly drawn) [Compound 15, (S)-6-(((S)-1-((S)-1-(((S)-1-carboxy-3-oxopropan-2-yl)carbamoyl)-5-fluoro-6-methyl-3,4-dihydroisoquinolin-2(1H)-yl)-3-methyl-1-oxobutan-2-yl)amino)-5-((S)-5-fluoro-3,3-dimethylindoline-2-carboxamido)-6-oxohexanoic acid hydrotrifluoroacetate] yielded a Ki at human caspase-3 of more than 100 µM. Moreover, at human caspase-2, the Ki is 0.174 µM and the “Ki (Casp3) / Ki (Casp2)” value amounted to 575.
